Measured values as given in a melting point compilation (Tetko et al.; mined from patent text by program, amines drawn as free bases though some values may be those of a salt).

melting point	SMILES
248 °C	CCC1(C)C(=O)c2c(cc(O)c(Cl)c2Cl)C1c1ccccc1 (stereo not given)
161 to 162 °C	CCCCN(CCCC)c1ccc(C=CC=Cc2ccc(C=CC3=C(C#N)C(=C(C#N)C#N)OC3(C)C(F)(F)F)s2)c(OC)c1 (stereo not given)
97 to 99 °C	Cc1[nH]nc(Oc2ccc([N+](=O)[O-])cc2C(F)(F)F)c1C
213 to 214 °C	CC(=O)Nc1c(C(=O)c2ccc(OC(F)(F)F)cc2)[nH]c2cc(Cl)ccc12
116 to 117 °C	COc1cc(C)ccc1CNC(=O)C(=O)NCCc1ccc(C)cn1
175 to 176 °C	CCc1nc2c(cnn2CC)c(NC2CCOCC2)c1CNC(=O)c1cccc(C(=O)NCc2ccc(C)c(Br)c2)c1
191 to 194 °C	CCOC(=O)C(=CNc1ncnc2ccc(NC(=O)C(CC)CC)cc12)C(=O)OCC
223 to 226 °C	COc1ccc(-c2cnn3c(N)c(-c4cccc(Cl)c4)c(C)nc23)cc1OC
81 to 82 °C	CCc1c(Oc2ccc(C(F)(F)F)cc2[N+](=O)[O-])nn(C(=O)NC)c1C
190 to 192 °C	Cc1cc(C)c(Nc2nc(C)ncc2S(=O)(=O)c2ccc(-c3cccnc3)cc2)c(C)c1
74 to 75 °C	CC1CN(c2ccc(N)cc2)C(C)CN1CC(O)(Cn1cncn1)c1ccc(Cl)cc1Cl (stereo not given)
144 °C	CCOC(=O)NC(=S)NCCOCC1=C(C(=O)OCC)C(c2cccc(Cl)c2Cl)C(C(=O)OC)=C(C)N1 (stereo not given)
170 °C	COc1ccc(NC(=NC#N)N2CCn3c(c(C(N)=O)c(Cl)c3-c3ccccc3)C2)cc1
135 to 137 °C	COc1ccc(C)cc1NC(=O)Nc1ccc(N2CCN(C(=O)Nc3ccc(OCCO)cc3C(F)(F)F)CC2)c(C#N)c1
111 to 112 °C	COCOc1cc(OC)cc(C)c1C(=O)O
206 to 207 °C	CC1CN(c2c(F)cc3c(=O)c(C(=O)O)cn4c3c2OCC4C)CC1NC(=O)OC(C)(C)C (stereo not given)
81.5 to 83 °C	COc1ccccc1OCCOS(N)(=O)=O
93 to 94 °C	COc1ccc2c(c1)CCC1C2CCC2(C)C(NCCCCCCN)CCC12 (stereo not given)
40 to 42 °C	CCCCCCCCCCCCOCCOc1ccc(C(=O)OC)cc1
92 to 98 °C	Cc1onc(-c2ccccc2)c1C(=O)NCCCN1CCN(c2cc(Cl)ccc2O)CC1
92 to 94 °C	CCOC(=O)C(=O)Cc1cc(Cl)c(Cl)cc1[N+](=O)[O-]
49 to 51 °C	COC(=O)COc1ccc(CCCOS(C)(=O)=O)cc1
153 to 155 °C	CON=CCCCn1c(C)nc2c(N)nc3ccccc3c21

melting point	SMILES
203 °C	O=C1CCC(C(=O)OC2c3ccccc3C(=O)N2c2ccc3ccc(Cl)nc3n2)CC1 (stereo not given)
91 to 94 °C	O=C(O)CCC(=O)c1ccc(SCCCBr)cc1
> 250 °C	COc1cc2c(cc1Cl)NC(=O)C2=NNc1ccc(S(N)(=O)=O)cc1
109 to 110 °C	CCCC(=O)c1cnc2c(OCCCN(C)C)cccc2c1Nc1ccccc1C
158 °C	Oc1ccc2cc(Oc3c(Cl)cc(C(F)(F)F)cc3Cl)ccc2c1
104 to 109 °C	O=C(O)CCCOc1cc(Cn2cc(C3c4ccccc4C=Cc4ccccc43)c(=S)[nH]c2=O)cc(OCC(=O)O)c1
> 237 °C	O=C(O)CN1C(=O)C(=Cc2ccc(Cl)cc2Cl)SC1=S
126 to 127 °C	Cc1[nH]c2ccc(OCCN3CCCC3c3cccnc3)cc2c1C(=O)OCc1ccccc1 (stereo not given)
76 °C	Cc1cc(CCCCCCCOc2ccc(C(=O)OC(C)(C)C)cc2)on1
78 to 86 °C	CC(C)NCCCCCCOc1ccc(O)cc1
141 to 143 °C	CCCOc1ccc(S(=O)(=O)C(C)C)cc1-c1nc2c(CC)nn(C[C@@H]3CCCN3C(=O)OC(C)(C)C)c2c(=O)[nH]1
80 to 92 °C	CC(=O)Nc1cc(-c2ccc(S(C)(=O)=O)cc2)c(-c2ccc(F)cc2)s1
235 to 236 °C	Cc1ccc(S(=O)(=O)NNC2=CC(=O)CC(c3ccccc3Cl)C2)cc1 (stereo not given)
78 °C	COc1cc(C)c2cc(C(C)O)ccc2c1C (stereo not given)
92 to 93 °C	OCC(O)COc1cc(-c2cccc(Cl)c2)on1 (stereo not given)
123 to 125 °C	CCC1(CCCCN2CCN(c3cccc(OC)c3)CC2)C(=O)Nc2ccccc21 (stereo not given)
176 to 178 °C	O=C(O)c1ccccc1NCCCN1c2ccccc2CCc2ccc(Cl)cc21
81.6 to 83.3 °C	O=C(O)c1ccc(Cl)cc1OCCN1CCC(c2cn(Cc3ccoc3)c3ncccc23)CC1
100 to 101 °C	COC(=O)c1ccc(Cl)c(O)c1
114 to 115 °C	CC(=O)SCC(CSC(C)=O)C(=O)N(CC(=O)O)C1Cc2ccccc2C1
116 °C	CCOP(=O)(Cc1cc(Cl)c(O)c(C(C)(C)C)c1)OCC
200 to 202 °C	COC(=O)c1ccc(O)c(C(=O)CC(=O)c2cccnc2)c1
210 to 213 °C	Nc1cn(C2CCN(c3c(F)c(N)c4c(=O)c(C(=O)O)cn(C5CC5)c4c3F)C2)nn1 (stereo not given)

The next lines start with the compound.

SMILES	melting point
CCSC(=NC(=O)c1ccccc1)Nc1ccccc1F	95 to 97 °C
O=C(Nc1ccc(CN2CCCCC2)cc1)c1cccc(OCc2ccccc2)c1	137 to 138 °C
O=S(=O)(C(=CNc1ccccc1C(F)(F)F)S(=O)(=O)c1ccc(Cl)cc1)c1ccc(Cl)cc1	169 to 171 °C
CCCCCCC(CO)n1cnc(C(N)=O)c1 (stereo not given)	97.5 to 100 °C
C=C1CC1(c1ccc(OC)cc1)c1ccc(OC)cc1	31 to 32 °C
CN(C)C(=O)COc1cccc(C=Cc2ccc3ccccc3n2)c1	104 to 106 °C
CSC(=S)NCc1ccc(O)cc1	90 to 91 °C
CN1CC=C(c2cc3cc(Cl)ccc3o2)CC1	108 to 118 °C
CN1CCN(CC(=O)O)CC1	158 to 160 °C
CC(C)(C)c1cc(CCc2cc(F)cc(F)c2NC(=O)NC23CC4CC(CC(C4)C2)C3)cc(C(C)(C)C)c1O	218 to 220 °C
NCC(C(=O)O)c1c[nH]c2cc(Cl)ccc12 (stereo not given)	245 to 247 °C
CCN1C(=O)Cc2cc3c(cc21)C(=O)c1ccccc1CO3	186 to 188 °C
Cc1c(Br)c2c(c(C)c1NC(=O)OC(C)(C)C)CC(C)O2 (stereo not given)	115 to 116 °C
O=C(CCCN1CCC(c2noc3cc(F)ccc23)CC1)c1cc2c(s1)C(=O)NCCC2	186 to 187 °C
CC(=O)Nc1ccc(Br)c2c1CN(C(C)=O)CC2	127 to 130 °C
CN(Cc1ccc(NC(=O)C2CCS(=O)(=O)c3ccc(OCc4ccc(F)cc4)cc3C2)cc1)C1CCOCC1 (stereo not given)	232 to 234 °C
OC(Cc1ccncc1)C(Cl)(Cl)Cl (stereo not given)	166 to 168 °C
CN(C)c1ccc(NC(=O)N(C[C@H]2CCC[C@H](CN(C(=O)Nc3ccc(N(C)C)cc3)C3CCCCC3)C2)C2CCCCC2)cc1 (relative stereo)	145 to 146 °C
CC(C)C=CC1(C(F)(F)F)OCC(=O)Nc2ccc(F)c(F)c21 (stereo not given)	159 to 160 °C
O=C(O)CNc1nccc(-c2nc(=O)c3ccccc3s2)n1	283 to 284 °C
CCCCCCCCCCCCc1cc(CBr)on1	31.5 to 35 °C
C=CCN(CC=C)c1nc(N(CC=C)CC=C)nc(N2CCN(C(=O)n3ccnc3)CC2)n1	94 to 95 °C
CC(C)N(N)C(=O)c1ccc(-c2ccc(Cl)cc2)o1	142 to 144 °C
Nc1cccc(-c2ccc(CCN3CCC4(CC3)NC(=O)N(Cc3ccccc3)C4=O)cc2)n1	190 °C
CC(C(N)=O)c1ccc2c(=O)c3ccccc3ccc2c1 (stereo not given)	158 to 159 °C
OCc1cnc2sc3ccccc3n12	183 to 184 °C
CC(=O)C(Cc1ccccc1)Nc1nc2ccc(C(C)C)cc2s1 (stereo not given)	107 to 110 °C

SMILES	melting point
Clc1ccc(-c2ccc(CBr)cc2)cc1	64 to 66 °C
Cc1cc2cnccc2s1	47 to 48 °C
Cc1ccc(N2CC(COc3ccc(C(=O)O)cc3)CC2=O)cc1 (stereo not given)	212 to 213 °C
CSc1nc(=O)n(C)c(=O)[nH]1	243 to 244 °C
COc1cc(OC)c(F)c(N=Cc2cnc(SC)nc2NC2CC2)c1F	172 to 174 °C
O=C1C2CCCCC2C2(c3ccccc3)NCCN12 (stereo not given)	170 °C
COc1ccc(-c2coc3ccc(-c4nnc(SCc5cccc(F)c5)o4)cc23)cc1	146 to 147 °C
CCCCC(=O)Nc1ccc([N+](=O)[O-])cc1	107 to 116 °C
CC(O)(c1ccc(Oc2ccccc2)cc1)C1SCSCS1 (stereo not given)	70 to 71 °C
O=c1oc(/C=C/c2ccc(OC(F)F)c(OC(F)F)c2)nc2ccccc12	113 to 115 °C
O=C1N=NC(=O)N1c1ccccc1	102 to 107 °C
N#Cc1ccc2c(c1)nc(N)n2CCC(=O)O	> 320 °C
O=C(Nc1nc2ccccc2nc1Oc1ccccc1)N1CCN(C(c2ccccc2)c2ccccc2)CC1	208 to 210 °C
COc1ccc2c(c1)CCC1CC(=O)NN=C21 (stereo not given)	198 °C
O=C(Oc1nc(Cl)c(Cl)cc1Cl)C(Cl)(Cl)Cl	58 to 60 °C
CC1(c2nnn[nH]2)CC(Cl)(I)C=CC1N (stereo not given)	205 to 208 °C
O=C(Oc1ccccc1)N1c2ncccc2OCC1OP(=O)(Oc1ccccc1)Oc1ccccc1 (stereo not given)	82 °C
O=C(Nc1ccc(N2CCN(C(C(=O)NCC(F)(F)F)c3ccccc3)CC2)cc1)c1ccccc1-c1ccc(C(F)(F)F)cc1 (stereo not given)	208 °C
COc1ccc(-c2ccc(C(C)=O)cc2)cc1F	149 to 150 °C
Oc1ccc(Oc2ncc(C(F)(F)F)cc2F)cc1	97 °C
CS(=O)(=O)c1ccc(-c2cnn(CC(F)(F)F)c(=O)c2N2CCCCC2)cc1	160 to 161 °C
C[C@H](O)CCOc1c(-c2ccc(S(C)(=O)=O)cc2)cnn(-c2ccc(F)c(F)c2)c1=O	128 to 130 °C
CN1C(=O)C2(COc3cc4c(cc32)OCCO4)c2c(C(=O)N3CCCC3)cccc21 (stereo not given)	242 to 244 °C
C=C(Cn1cc[nH]c1=O)c1ccc(OC)c(OC2CCCC2)c1	110 °C
COc1ccc2c(c1)CCC1C3CC4OCCOC4C3(C)CCC21C (stereo not given)	115 °C
COc1ccc(CCc2nnc(-c3ccc4nccn4c3)o2)cc1C(F)(F)F	150 to 151 °C
COc1ccc2[nH]c(S(=O)Cc3nccc(N(C)C)c3F)nc2c1 (stereo not given)	145 to 147 °C
